Patent US8173654B2, “Triazolopyridazine compounds” (Janssen Pharmaceutica N.V., priority 2005, dated 2012)

biological target: T1, c-Met (Homo sapiens, UniProt P08581); assay: Delfia autophosphorylation kinase assay on the c-Met; type: biochemical; design: The purified His6 tagged cytoplasmic domain of c-Met was diluted to a concentration of 500 ng/ml; host or cells: Sf9 insect cells (baculovirus, pFastBacHTa); conditions: His6 tagged cytoplasmic domain of c-Met, 1 μM ATP; read-out: cMet Delfia autophos IC-50
Method: A DELFIA time resolved fluorescence assay was developed for screening of compounds that decreases the autophosphorylation thus the kinase activity of c-Met. The DELFIA assay is non-radioactive. The autophosphorylation of the c-Met is measured by an anti-phosphotyrosine antibody coupled to an Europium tag.
A major advantage of this format is that it allowed for the development of an autophosphorylation assay using Ni-chelate plates which bind the hexa-his tag on the recombinant Met kinase. The autophosphorylation assay allows one to use a known substrate, Met kinase itself, for the phosphorylation.
The assay procedure for screening is as follows. The purified His6 tagged cytoplasmic domain of c-Met was diluted to a concentration of 500 ng/ml in enzyme dilution buffer (50 mM Tris-HCl, pH8.0, 0.1% BSA) and dispensed to assay plates at a volume of 50 μl per well. Black opaque HisGrab Nickel coated 96 well plates (Pierce, Rockford, Ill.) were selected for use. Next, 2.5 μl of compound in 40% DMSO was added to test wells, 2.5 μl of 40% DMSO only was added to the negative control wells. The autophosphorylation reaction was initiated upon the addition of 50 μl of reaction buffer, 50 mM Tris-HCl, pH 8.0, 10 mM MgCl2, 0.1 mM Na3VO4, 1 mM DTT, 1 μM ATP. Plates were incubated at room temperature for 1 hour followed by 2 washes with 200 μl/well of PBS. Europium conjugated anti-phosphotyrosine antibody, Eu-PY20 from Perkin Elmer was diluted to 50 ng/ml in Delfia AB buffer (Perkin Elmer, Boston, Mass.), added to the 96 well assay plates at a volume of 100 μl/well, and incubated at room temperature for 2 hours. Assay plates were then washed 4 times each with 200 μl/well of Delfia wash buffer (Perkin Elmer). After the final wash 150 μl of Delfia Enhancement solution (Perkin Elmer) was added to each well of the assay plate and incubated at room temperature for 1 hour. Plates were read on an LJL Analyst instrument (Molecular Devices; Sunnyvale, Calif.) with filter settings of 360 excitation, 620 emission, and 410 dichroic. IC50 values were calculated using Graphpad Prism software (Graphpad Software; San Diego, Calif.).
Target sequence in this assay (P08581 956-1390 limits assumed): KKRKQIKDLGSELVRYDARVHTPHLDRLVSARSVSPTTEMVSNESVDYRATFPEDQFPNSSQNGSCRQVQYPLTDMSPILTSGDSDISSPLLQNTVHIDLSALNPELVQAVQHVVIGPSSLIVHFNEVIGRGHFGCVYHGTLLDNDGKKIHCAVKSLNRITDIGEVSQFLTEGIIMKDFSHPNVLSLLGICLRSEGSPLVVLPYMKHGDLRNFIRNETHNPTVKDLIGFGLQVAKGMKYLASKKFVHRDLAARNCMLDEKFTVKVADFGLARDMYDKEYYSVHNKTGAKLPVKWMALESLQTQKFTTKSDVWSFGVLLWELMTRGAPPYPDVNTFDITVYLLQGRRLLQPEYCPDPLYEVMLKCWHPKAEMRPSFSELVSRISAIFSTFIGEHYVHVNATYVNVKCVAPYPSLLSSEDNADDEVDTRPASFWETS

`Oc1ccc(Cc2nnc3ccc(-c4cn[nH]c4)nn23)cc1` [Example 3, 4-[6-(1H-Pyrazol-4-yl)-[1,2,4]triazolo[4,3-b]pyridazin-3-ylmethyl]-phenol] and `Oc1ccc(Cc2nnc3ccc(-c4ccn[nH]4)nn23)cc1` [Example 5, 4-[6-(2H-Pyrazol-3-yl)-[1,2,4]triazolo[4,3-b]pyridazin-3-ylmethyl]-phenol] are within 1.5-fold of each other in IC50: 16 nM for the first, 15 nM for the second.

Going from `c1cnc2ccc(Cc3nnc4ccc(-c5ccncc5)nn34)cc2c1` [Example 6, 6-(6-Pyridin-4-yl-[1,2,4]triazolo[4,3-b]pyridazin-3-ylmethyl)-quinoline] to `N#Cc1cncc(-c2ccc3nnc(Cc4ccc5ncccc5c4)n3n2)c1` [Example 83, 5-(3-Quinolin-6-ylmethyl-[1,2,4]triazolo[4,3-b]pyridazin-6-yl)-nicotinonitrile], the IC50 rises from 8 nM to 14 nM (1.8-fold). The first is the more potent here.

Compared with `c1cc(-c2ccc3nnc(Cc4ccc5c(c4)CCO5)n3n2)ccn1` [Example 7, 3-(2,3-Dihydro-benzofuran-5-ylmethyl)-6-pyridin-4-yl-[1,2,4]triazolo[4,3-b]pyridazine], `c1ccc(-c2ccc3nnc(Cc4ccc5c(c4)CCO5)n3n2)nc1` [Example 19, 3-(2,3-Dihydro-benzofuran-5-ylmethyl)-6-pyridin-2-yl-[1,2,4]triazolo[4,3-b]pyridazine] is 1.5-fold higher in IC50: 111 nM for the first, 172 nM for the second.

Going from `c1cc2c(cc1Cc1nnc3ccc(-c4ccc(N5CCOCC5)nc4)nn13)CCO2` [Example 8, 3-(2,3-Dihydro-benzofuran-5-ylmethyl)-6-(6-morpholin-4-yl-pyridin-3-yl)-[1,2,4]triazolo[4,3-b]pyridazine] to `c1cc2c(cc1Cc1nnc3ccc(-c4ccc(CN5CCOCC5)o4)nn13)CCO2` [Example 40, 3-(2,3-Dihydro-benzofuran-5-ylmethyl)-6-(5-morpholin-4-ylmethyl-furan-2-yl)-[1,2,4]triazolo[4,3-b]pyridazine], the IC50 rises from 243 nM to 1080 nM (4.4-fold). The first is the more potent here.

`O=C(c1cncc(-c2ccc3nnc(Cc4ccc5ncccc5c4)n3n2)c1)N1CCOCC1` [Example 10, Morpholin-4-yl-[5-(3-quinolin-6-ylmethyl-[1,2,4]triazolo[4,3-b]pyridazin-6-yl)-pyridin-3-yl]-methanone] and `c1cnc2ccc(Cc3nnc4ccc(-c5ccc6nn[nH]c6c5)nn34)cc2c1` [Example 78, 6-[6-(3H-Benzotriazol-5-yl)-[1,2,4]triazolo[4,3-b]pyridazin-3-ylmethyl]-quinoline] are within 1.5-fold of each other in IC50: 217 nM for the first, 320 nM for the second.

First: c1cncc(-c2ccc3nnc(Cc4ccc5ncnn5c4)n3n2)c1 [Example 12, 6-Pyridin-3-yl-3-[1,2,4]triazolo[1,5-a]pyridin-6-ylmethyl-[1,2,4]triazolo[4,3-b]pyridazine]
Second: Clc1cc(Cc2nnc3ccc(-c4cccnc4)nn23)ccn1 [Example 14, 3-(2-Chloro-pyridin-4-ylmethyl)-6-pyridin-3-yl-[1,2,4]triazolo[4,3-b]pyridazine]
The IC50 of the first is lower: 56 nM for the first, over 10000 nM for the second.

Going from `Nc1nc2ccc(Cc3nnc4ccc(-c5cccs5)nn34)cc2o1` [Example 21, 6-(6-Thiophen-2-yl-[1,2,4]triazolo[4,3-b]pyridazin-3-ylmethyl)-benzooxazol-2-ylamine] to `Nc1ccc(Cc2nnc3ccc(-c4cccs4)nn23)cc1` [Example 28, 4(6-Thiophen-2-yl-[1,2,4]triazolo[4,3-b]pyridazin-3-ylmethyl)-phenylamine], the IC50 rises from 23 nM to 1900 nM (83-fold). The first is the more potent here.

Going from `c1ccc(Cc2nnc3ccc(-c4cccs4)nn23)cc1` [Example 24, 3-Benzyl-6-thiophen-2-yl-[1,2,4]triazolo[4,3-b]pyridazine] to `Fc1ccc(Cc2nnc3ccc(-c4cccs4)nn23)cc1` [Example 26, 3-(4-Fluoro-benzyl)-6-thiophen-2-yl-[1,2,4]triazolo[4,3-b]pyridazine], the IC50 falls from 1780 nM to 413 nM (4.3-fold). The second is the more potent here.

First: O=[N+]([O-])c1ccc(Cc2nnc3ccc(-c4cccs4)nn23)cc1 [Example 27, 3-(4-Nitro-benzyl)-6-thiophen-2-yl-[1,2,4]triazolo[4,3-b]pyridazine]
Second: CC(=O)Nc1ccc(Cc2nnc3ccc(-c4cccs4)nn23)cc1 [Example 29, N-[4(6-Thiophen-2-yl-[1,2,4]triazolo[4,3-b]pyridazin-3-ylmethyl)-phenyl]-acetamide]
The IC50 of the first is 95-fold higher: 8210 nM for the first, 86 nM for the second.

Going from `CCNC(=O)Nc1ccc(Cc2nnc3ccc(-c4cccs4)nn23)cc1` [Example 30, 1-Ethyl-3-[4-(6-thiophen-2-yl-[1,2,4]triazolo[4,3-b]pyridazin-3-ylmethyl)-phenyl]-urea] to `O=c1ccc(Cc2nnc3ccc(-c4cccs4)nn23)c[nH]1` [Example 32, 5-(6-Thiophen-2-yl-[1,2,4]triazolo[4,3-b]pyridazin-3-ylmethyl)-1H-pyridin-2-one], the IC50 falls from 570 nM to 305 nM (1.9-fold).

Compared with `[O-][n+]1ccc(Cc2nnc3ccc(-c4cccs4)nn23)cc1` [Example 34, 3-(1-Oxy-pyridin-4-ylmethyl)-6-thiophen-2-yl-[1,2,4]triazolo[4,3-b]pyridazine], `c1csc(-c2ccc3nnc(Cc4ccc5sccc5c4)n3n2)c1` [Example 36, 3-Benzo[b]thiophen-5-ylmethyl-6-thiophen-2-yl-[1,2,4]triazolo[4,3-b]pyridazine] is 2.3-fold higher in IC50: 1190 nM for the first, 2700 nM for the second. The first is the more potent here.

Compared with `COc1cnccc1-c1ccc2nnc(Cc3ccc4c(c3)CCO4)n2n1` [Example 41, 3-(2,3-Dihydro-benzofuran-5-ylmethyl)-6-(3-methoxy-pyridin-4-yl)-[1,2,4]triazolo[4,3-b]pyridazine], `Clc1ccc2cc(Cc3nnc4ccc(-c5cccnc5)nn34)ccc2n1` [Example 67, 2-Chloro-6-(6-pyridin-3-yl-[1,2,4]triazolo[4,3-b]pyridazin-3-ylmethyl)-quinoline] is 16-fold higher in IC50: 56 nM for the first, 900 nM for the second. The first is the more potent here.

Compared with `Oc1ccc(Cc2nnc3ccc(-n4ccnc4)nn23)cc1` [Example 45, 4-(6-Imidazol-1-yl-[1,2,4]triazolo[4,3-b]pyridazin-3-ylmethyl)-phenol], `Oc1ccc(Cc2nnc3ccc(-n4cccn4)nn23)cc1` [Example 46, 4-(6-Pyrazol-1-yl-[1,2,4]triazolo[4,3-b]pyridazin-3-ylmethyl)-phenol] is 3.2-fold higher in IC50: 70 nM for the first, 227 nM for the second. The first is the more potent here.

First: FC(F)(c1ccc2ncccc2c1)c1nnc2ccc(-c3cccs3)nn12 [Example 57, 6-[Difluoro-(6-thiophen-2-yl-[1,2,4]triazolo[4,3-b]pyridazin-3-yl)-methyl]-quinoline]
Second: c1cncc(-c2ccc3nnc(Cc4cccc5ncccc45)n3n2)c1 [Example 91, 5-(6-Pyridin-3-yl-[1,2,4]triazolo[4,3-b]pyridazin-3-ylmethyl)-quinoline]
The IC50 of the first is 3500-fold lower: 0.3 nM for the first, 1050 nM for the second. The first is the more potent here.

First: Cn1cc(-c2ccc3nnc(Cc4ccc5c(ccc[n+]5[O-])c4)n3n2)cn1 [Example 63, 6-[6-(1-Methyl-1H-pyrazol-4-yl)-[1,2,4]triazolo[4,3-b]pyridazin-3-ylmethyl]-quinoline 1-oxide]
Second: Cc1nc2ccc(Cc3nnc4ccc(-c5cnn(C)c5)nn34)cc2s1 [Example 82, 3-(2-Methyl-benzothiazol-6-ylmethyl)-6-(1-methyl-1H-pyrazol-4-yl)-[1,2,4]triazolo[4,3-b]pyridazine]
The IC50 of the first is 35-fold higher: 600 nM for the first, 17 nM for the second. The second is the more potent here.

biological target: T1, c-Met; assay: Cell based ELISA assay for HGF stimulated c-Met phosphorylation in S114 cells; design: expressed in transfected cells; host or cells: S114 (murine NIH 3T3 derived); conditions: read-out: c-Met Cell ELISA IC-50
Method: A cell based ELISA assay was developed to evaluate the ability of compounds to inhibit HGF stimulated c-Met phosphorylation in cells.
S114 cells were seeded to a 96 well tissue culture treated dish at a concentration of 5×10^4 per well. After a 16-20 hour incubation, culture medium was removed and replaced with serum free medium supplemented with 0.5% BSA. Test compound was then added and incubated with the cells for 60 minutes, followed by the addition of 1 μl HGF at […] for 15 minutes. […] Following another 1 hour incubation at room temperature the plates were washed three times with Delfia wash buffer (Perkin Elmer). After the final wash, […] of Delfia enhancer solution (Perkin Elmer) was added and allowed to incubate for 60 minutes. Plates were read on an LJL Analyst instrument (Molecular Devices; Sunnyvale, Calif.) with filter settings of 360 excitation, 620 emission, and 410 dichroic. IC50 values were calculated using Graphpad Prism software (Graphpad Software; San Diego, Calif.).
Target sequence in this assay (P08581 25-1390): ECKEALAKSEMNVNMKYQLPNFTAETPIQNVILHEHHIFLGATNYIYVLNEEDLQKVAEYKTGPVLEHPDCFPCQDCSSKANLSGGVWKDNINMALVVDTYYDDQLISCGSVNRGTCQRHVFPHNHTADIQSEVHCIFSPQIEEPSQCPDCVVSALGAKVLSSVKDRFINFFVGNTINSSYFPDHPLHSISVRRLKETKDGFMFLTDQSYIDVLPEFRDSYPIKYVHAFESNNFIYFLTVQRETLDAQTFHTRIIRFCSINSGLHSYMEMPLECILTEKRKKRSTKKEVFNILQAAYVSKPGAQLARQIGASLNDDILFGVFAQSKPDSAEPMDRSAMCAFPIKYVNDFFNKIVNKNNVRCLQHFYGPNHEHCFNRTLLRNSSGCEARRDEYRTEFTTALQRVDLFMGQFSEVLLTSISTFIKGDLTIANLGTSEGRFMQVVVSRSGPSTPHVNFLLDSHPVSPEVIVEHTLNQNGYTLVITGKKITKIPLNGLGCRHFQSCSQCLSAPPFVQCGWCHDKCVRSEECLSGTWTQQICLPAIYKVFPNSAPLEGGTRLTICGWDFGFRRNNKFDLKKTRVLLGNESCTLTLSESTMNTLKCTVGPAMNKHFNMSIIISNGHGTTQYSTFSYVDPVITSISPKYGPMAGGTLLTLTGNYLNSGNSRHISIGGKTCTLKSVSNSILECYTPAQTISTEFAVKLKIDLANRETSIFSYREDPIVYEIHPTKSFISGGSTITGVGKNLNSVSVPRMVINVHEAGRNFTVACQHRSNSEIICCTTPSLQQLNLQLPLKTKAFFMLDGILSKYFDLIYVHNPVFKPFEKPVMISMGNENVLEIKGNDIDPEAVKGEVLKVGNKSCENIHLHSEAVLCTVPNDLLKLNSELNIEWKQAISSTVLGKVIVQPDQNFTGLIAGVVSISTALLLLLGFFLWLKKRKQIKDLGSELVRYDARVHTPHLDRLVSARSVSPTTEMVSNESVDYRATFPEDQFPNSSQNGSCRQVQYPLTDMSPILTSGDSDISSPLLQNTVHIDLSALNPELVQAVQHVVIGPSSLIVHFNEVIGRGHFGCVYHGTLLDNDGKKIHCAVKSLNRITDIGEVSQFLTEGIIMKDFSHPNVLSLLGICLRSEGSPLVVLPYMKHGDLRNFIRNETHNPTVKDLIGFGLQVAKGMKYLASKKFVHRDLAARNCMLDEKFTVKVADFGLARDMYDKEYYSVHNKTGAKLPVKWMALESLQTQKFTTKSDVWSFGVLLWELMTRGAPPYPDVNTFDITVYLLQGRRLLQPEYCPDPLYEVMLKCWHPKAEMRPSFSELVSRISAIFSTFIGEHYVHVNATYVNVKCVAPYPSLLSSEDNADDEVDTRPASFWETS

First: Oc1ccc(Cc2nnc3ccc(-c4cn[nH]c4)nn23)cc1 [Example 3, 4-[6-(1H-Pyrazol-4-yl)-[1,2,4]triazolo[4,3-b]pyridazin-3-ylmethyl]-phenol]
Second: Oc1ccc(Cc2nnc3ccc(-c4ccn[nH]4)nn23)cc1 [Example 5, 4-[6-(2H-Pyrazol-3-yl)-[1,2,4]triazolo[4,3-b]pyridazin-3-ylmethyl]-phenol]
The IC50 of the first is 1.9-fold lower: 1030 nM for the first, 1930 nM for the second.

Compared with `c1cnc2ccc(Cc3nnc4ccc(-c5ccncc5)nn34)cc2c1` [Example 6, 6-(6-Pyridin-4-yl-[1,2,4]triazolo[4,3-b]pyridazin-3-ylmethyl)-quinoline], `c1cnc2ccc(Cc3nnc4ccc(-c5ccc6[nH]ccc6c5)nn34)cc2c1` [Example 84, 6-[6-(1H-Indol-5-yl)-[1,2,4]triazolo[4,3-b]pyridazin-3-ylmethyl]-quinoline] is 120-fold lower in IC50: 112 nM for the first, 0.9 nM for the second. The second is the more potent here.

Going from `c1cc(-c2ccc3nnc(Cc4ccc5c(c4)CCO5)n3n2)ccn1` [Example 7, 3-(2,3-Dihydro-benzofuran-5-ylmethyl)-6-pyridin-4-yl-[1,2,4]triazolo[4,3-b]pyridazine] to `O=C(c1ccc(-c2ccc3nnc(Cc4ccc5ncccc5c4)n3n2)s1)N1CCS(=O)(=O)CC1` [Example 54, (1,1-Dioxo-1λ6thiomorpholin-4-yl)-[5-(3-quinolin-6-ylmethyl-[1,2,4]triazolo[4,3-b]pyridazin-6-yl)-thiophen-2-yl]-methanone], the IC50 falls from 2150 nM to 6 nM (360-fold).
